Data as given in US8598383B2, “Pharmaceutical composition for treating or preventing degenerative and inflammatory diseases” (Neurotech Pharmaceuticals Co., Ltd., priority 2006, dated 2013).
Blank lines part the entries; values can stand above or below the compound they belong to.

Experiments:
[1] = test system: TNF-alpha gene expression in BV2 cell line; test: Suppressing effect on gene expression (RT-PCR), TNF-alpha; format: cell-based; conditions: gene expression vs LPS control, BV2, 24 hours; for inhibition at 100 µM: Mus musculus, BV-2, 24 h
Method: (§1) Effects of the 2-hydroxybenzoic acid derivatives on iNOS gene expression in BV2 cell line were evaluated. 100 mm dish was inoculated with 1×10^6 cells of BV2 cell line, and treated with both LPS, inflammation-inducing material, and 1˜100 uM of the 2-hydroxybenzoic acid derivative of the present invention, together, in regular concentration interval. After 24 hours of incubation, RNA was extracted. Extracted RNA was used in reverse transcription and polymerase chain reaction, and expression patterns of TNF-alpha, IL-1beta and iNOS were compared.

[2] = test system: BV2 microglia cell line; test: Suppressing effect on production of NO (LPS, Griess reagent); format: cell-based; conditions: Mus musculus, BV-2, LPS-treated BV2 microglia, 24 hours incubation
Method: Inhibiting effect of the 2-hydroxybenzoic acid derivative according to the present invention on NO, inflammatory factor intervening inflammation reaction was evaluated. BV2 microglia cell line was treated with lipopolysaccharide (LPS), a inflammation-inducing material of bacteria toxin, with inclusion of 10 uM, 30 uM or 100 uM of the present compound. After 24 hours of incubation, 50 ul of culture medium was collected in 96-well plate. Then, 50 ul of Griess reagent was added and incubated for 10 minutes at room temperature. The absorbance was evaluated by ELISA reader at 540 nm.

[3] = test system: iNOS gene expression in BV2 cell line; test: Suppressing effect on gene expression (RT-PCR), iNOS; format: cell-based; conditions: Mus musculus, BV-2, 24 h, gene expression vs LPS control, BV2, 24 hours
Method: as §1

[4] = test system: IL-1beta gene expression in BV2 cell line; test: Suppressing effect on gene expression (RT-PCR), IL-1beta; format: cell-based; conditions: Mus musculus, BV-2, 24 h, gene expression vs LPS control, BV2, 24 hours
Method: as §1

[5] = test system: TNF-α production in BV2 cell line; test: Suppressing effect on production of cytokine (ELISA), TNF-α; format: cell-based; conditions: LPS + 100 uM of sample, 24 hours; for inhibition at 100 µM: Mus musculus, BV-2, level in medium; for TNF-α % Inhibition: level in medium, 100 µM
Method: (§2) Effects of the 2-hydroxybenzoic acid derivatives on production of cytokine in BV2 cell line were evaluated. 24-well plate was inoculated with 1×10^6 cells of BV2 cell line, and treated with both LPS, inflammation-inducing material, and 100 uM of sample (the 2-hydroxybenzoic acid derivative or comparative drug), together. After 24 hours of incubation, culture medium was collected. The levels of cytokines, TNF-α and IL-6, in the medium were evaluated by ELISA method.

[6] = Single-dose toxicity test; format: in vivo
Method: FIG. 32 is results of single dose toxicity testing of some 2-hydroxybenzoic acid derivatives according to the present invention.
Single-dose toxicities of the 2-hydroxybenzoic acid derivatives were evaluated.

[7] = test system: DSS-induced colitis; test: 5% dextran sulfate sodium (DSS) inflammatory intestinal disease model; format: in vivo, mouse; conditions: vs DSS only; compound 18 25 mg/kg oral
Method: FIG. 17 is results showing efficacy through 5% dextran sulfate sodium (DSS) model, inflammatory intestinal disease animal model. After treatment of DSS, 10, 25 or 50 mg/kg of compound 18 suspended in 10% vehicle was orally administered. Sham means colon of normal mouse, DSS means colon mouse treated with 5% DSS. The others are pictures of colon of mice administered with compound 18 at indicated dose.
FIG. 20 is an efficacy test result of compound 18 using DSS. After treatment of DSS, compound 18 (25 mg/kg) suspended in 10% vehicle was orally administered. After that, bloody excrement by colon injury, diarrhea and the degree of dirtiness were evaluated as feces score.
5% dextran sulfate sodium (DSS) model was used as inflammatory intestinal disease animal model. 5% DSS mixed with water was orally administered. 5% DSS model causes damage to epithelial cell, and ulcer in left colon and the decrease of colon length are mainly observed in the model. This model is simple and reproductive, and can regulate the degree of inflammation according to dose. Therefore, this model is often used for evaluating drug candidates.
DSS is continuously administered in water bottle. The 2-hydroxybenzoic acid derivative was suspended in 10% vehicle, and orally administered.

[8] = test system: MPO (myeloperoxidase); conditions: cited from earlier work; for activity of MPO: in vivo
[9] = test system: IL-6 production in BV2 cell line; test: Suppressing effect on production of cytokine (ELISA), IL-6; format: cell-based; conditions: LPS + 100 uM of sample, 24 hours; for IL-6 % Inhibition: level in medium; for inhibition at 100 µM: Mus musculus, BV-2, level in medium
Method: as §2

[10] = test system: collagen-induced arthritis; test: Collagen-induced arthritis model (arthritic index); format: in vivo, mouse
Method: FIG. 15 is results showing efficacy through arthritis animal model induced by collagen. 25 mg/kg of compound 2, 3 or 18, or methotrexate (control, MTX, 1 mg/kg/week) was intraperitoneally injected after administration of collagen.
FIG. 16 is results showing efficacy of compounds 6 and 11 through arthritis animal model induced by collagen. Collagen was intradermally injected two times with 2 week-interval. One week later, compound 6, compound 11 and methotrexate (control) were intraperitoneally injected. Then, the animals were observed everyday for 2-3 weeks, and results was evaluated by arthritis index.
To evaluate the efficacy of the 2-hydroxybenzoic acid derivative, collagen-induced arthritis model (rheumarthritis animal model) was used. Bovine type II collagen was mixed with complete Freund's adjuvant to make an emulsion, and the emulsion was intradermally injected into the origin site of 8˜10 week-old DBA/1LacJ mouse tail. Intradermal boosting was performed by the same method 2 weeks later. 25 mg/kg/day of compounds 2, 3 and 18, 1 mg/kg/week of methotrexate (comparative example) or 10% vehicle (control) were intraperitoneally injected one week after the second intradermal injection of collagen (FIG. 15). Pictures of foot edema of normal rat (sham), collagen-administered rat (collagen) and compound 18-administered rat (compound 18, 25 mg/kg/day injection) were shown in FIG. 14.
In addition, 50 mg/kg/day of compounds 6 and 11, and 5 mg/kg/2 days of methotrexate (comparative example) were intraperitoneally injected. Phosphate buffered saline was injected as control (FIG. 16). For 2˜3 weeks, the degree of arthritis was observed everyday, and the result was evaluated according to the below arthritic index using edema.
4 paws were evaluated as from 0 to 4 point, Total points: 16

IC50 [2]: 1.79 µM
SMILES: O=C(O)c1cc(NCCc2ccc(F)cc2C(F)(F)F)ccc1O [compound 9, 5-[2-(4-fluoro-2-trifluoromethyl-phenyl)-ethylamino]-2-hydroxy-benzoic acid]
inhibition at 100 µM [1]: 61.7% | % Inhibition (in 100 uM) TNF-alpha [1]: 61.7% | inhibition at 100 µM [3]: 17.8%

SMILES: O=C(O)c1cc(NCCCc2ccc(F)cc2)ccc1O [compound 15, 5-[3-(4-fluoro-phenyl)-propylamino]-2-hydroxy-benzoic acid]
inhibition at 100 µM [1]: 37.4% | inhibition at 100 µM [4]: 35.1%

SMILES: O=C(O)c1cc(NCCCc2ccccc2)ccc1O [compound 13, 2-hydroxy-5-(3-phenyl-propylamino)-benzoic acid]
inhibition at 100 µM [1]: 43% | inhibition at 100 µM [3]: 15.5%

IC50 [2]: 183 µM
SMILES: O=C(O)c1cc(NCCc2ccccc2)ccc1O [compound 1, 2-hydroxy-5-phenethylamino-benzoic acid]

SMILES: O=C(O)c1cc(NCCc2cc(C(F)(F)F)cc(C(F)(F)F)c2)ccc1O [compound 4, 5-[2-(3,5-bis-trifluoromethyl-phenyl)-ethylamino]-2-hydroxy-benzoic acid]
IC50 [2]: 6.25 µM | inhibition at 100 µM [5]: 18.7% | single-dose toxicity, finding in words ([6]; mouse, in vivo): caused sudden death of mouse at 3 g/kg

SMILES: O=C(O)c1cc(/N=N/c2ccc(S(=O)(=O)Nc3ccccn3)cc2)ccc1O [sulfasalazine, reference compound]
feces score (bloody excrement, diarrhea, dirtiness) [7]: significantly decreased feces score | activity of MPO [8]: decreased the activity of MPO

SMILES: O=C(O)c1cc(NCCCc2ccc(C(F)(F)F)cc2)ccc1O [compound 14, 2-hydroxy-5-[3-(4-trifluoromethyl-phenyl)-propylamino]-benzoic acid]
inhibition at 100 µM [1]: 38.9% | inhibition at 100 µM [3]: 44.3% | inhibition at 100 µM [5]: 62.6% | single-dose toxicity, finding in words ([6]; single dose): high toxicity or dose-independent toxicity

SMILES: CC(C)Cc1ccc(C(C)C(=O)O)cc1 (stereo not shown) [Ibuprofen, reference compound]
IL-6 % Inhibition ([9]; 100 µM): No effect | IL-6 % Inhibition ([9]; listed as ibuprofen, 100 µM): little reduced | TNF-α % Inhibition [5]: No effect | TNF-α % Inhibition ([5]; listed as ibuprofen): did not showing reducing effect

SMILES: O=C(O)c1cc(NCCc2cccc(C(F)(F)F)c2)ccc1O [compound 3, 2-hydroxy-5-[2-(3-trifluoromethyl-phenyl)-ethylamino]-benzoic acid]
arthritic index ([10]; 25 mg/kg/day intraperitoneal): apparent reducing effect | inhibition at 100 µM [9]: 33.1% | inhibition at 100 µM [5]: 31.9% | single-dose toxicity, finding in words ([6]; single dose): high toxicity or dose-independent toxicity

SMILES: Cc1ccc(CCCNc2ccc(O)c(C(=O)O)c2)cc1 [compound 17, 2-hydroxy-5-(3-p-tolyl-propylamino)-benzoic acid]
inhibition at 100 µM [1]: 20.8%

SMILES: O=C(O)c1cc(NCCc2ccccc2Cl)ccc1O [compound 19, 5-[2-(2-chloro-phenyl)-ethylamino]-2-hydroxy-benzoic acid]
LD50 ([6]; mouse, in vivo, single dose): 500 to 1000 mg/kg

SMILES: CS(=O)(=O)Nc1ccc([N+](=O)[O-])cc1Oc1ccccc1 [nimesulide]
protective effect in intestinal damage animal models ([8]; acetic acid-induced IBD and LTB4-induced IBD): showed protective effect | activity of MPO [8]: excessively suppressed the activity of MPO

SMILES: CC(=O)Oc1ccccc1C(=O)O [Aspirin, acetylsalicylic acid, reference compound]
inhibition at 100 µM [9]: 22.2% | IL-6 % Inhibition [9]: little reduced | TNF-α % Inhibition [5]: No effect | TNF-α % Inhibition ([5]; listed as aspirin): did not showing reducing effect

SMILES: O=C(O)c1cc(NCCc2ccc(Cl)c(Cl)c2)ccc1O [compound 8, 5-[2-(3,4-dichloro-phenyl)-ethylamino]-2-hydroxy-benzoic acid]
inhibition at 100 µM [1]: 77% | % Inhibition (in 100 uM) TNF-alpha [1]: 77.1% | inhibition at 100 µM [4]: > 50%

IC50 [2]: 20.7 µM
SMILES: O=C(O)c1cc(NCCc2ccc(C(F)(F)F)cc2F)ccc1O [compound 10, 5-[2-(2-fluoro-4-trifluoromethyl-phenyl)-ethylamino]-2-hydroxy-benzoic acid]

SMILES: CC(c1cc2ccccc2s1)N(O)C(N)=O (stereo not shown) [Zileuton]
activity of MPO [8]: decreased the activity of MPO

IC50 [2]: 132 µM
SMILES: COc1ccc(CCNc2ccc(O)c(C(=O)O)c2)cc1 [compound 11, 2-hydroxy-5-[2-(4-methoxy-phenyl)-ethylamino]-benzoic acid]
arthritic index ([10]; 50 mg/kg/day intraperitoneal): apparent reducing effect

SMILES: O=C(O)c1cc(NCCc2ccccc2[N+](=O)[O-])ccc1O [compound 5, 2-hydroxy-5-[2-(2-nitro-phenyl)-ethylamino]-benzoic acid]
inhibition at 100 µM [1]: 38.7% | inhibition at 100 µM [4]: 67.7%

SMILES: O=C(O)c1cc(NCCc2ccc(Cl)cc2)ccc1O [compound 6, 5-[2-(4-chloro-phenyl)-ethylamino]-2-hydroxy-benzoic acid]
arthritic index ([10]; 50 mg/kg/day intraperitoneal): apparent reducing effect

SMILES: Cc1ccccc1CCNc1ccc(O)c(C(=O)O)c1 [compound 12, 2-hydroxy-5-(2-o-tolyl-ethylamino)-benzoic acid]
inhibition at 100 µM [4]: 41.8% | inhibition at 100 µM [3]: 43.7%
